Values quoted from earlier work in publication PMC2777304 (PLoS Pathogens, 2009).
Where a name gives a salt, the structure may show the parent alone.

Settings: mouse, in vivo

Which “Highest nontoxic tolerable dose” value does the source give for `CCN(CC)CCCC(C)Nc1c2ccc(Cl)cc2nc2ccc(OC)cc12` (stereo not shown) [quinacrine, Quinacrine dihydrochloride] here?
The value was 40 mg/kg/day.
